For twelve compounds, IC50 results are on record in patent US20220220128A1, “HETEROCYCLIC COMPOUNDS AS KINASE INHIBITORS, COMPOSITIONS COMPRISING THE HETEROCYCLIC COMPOUND, AND METHODS OF USE THEREOF” (JS Innopharm (Shanghai) Ltd, priority 2019, published 2022).

Assay [1] concerns the target T1, human RET kinase (Homo sapiens, UniProt P07949).
T1 construct: purchased Carna 08-159
The assay is described as follows: RET Kinase Assay (LanthaScreen TR-FRET enzymatic assay). Format: biochemical. The note with it: 7 nM RET, 23 μM ATP. As to the method:
Compounds were tested in a LanthaScreen™ time-resolved fluorescence energy transfer (TR-FRET) enzymatic assay from Invitrogen. The assay used human RET kinase (Carna 08-159). Test compounds were prepared and diluted in DMSO in 3-fold serial dilutions to 50× of the final testing concentrations. The compounds were then further diluted to 5× by the kinase reaction buffer (50 mM HEPES pH 7.5, 0.0015% Brij-35). The enzymatic reaction for compound testing was performed in a white 384-well polypropylene plate (Corning 3573) with a total reaction volume of 25 μl containing 7 nM RET, 3 μM peptide substrate FAM-P2 (GL Biochem 112394), and 23 μM ATP (Sigma A7699-1G). The assay started with loading RET diluted in kinase reaction buffer to wells, followed by addition of equal volume of 5× compounds for 15-min incubation at the room temperature for pre-treatment. The enzymatic reaction was initiated by addition of mixture of the substrate and ATP prepared in kinase reaction buffer. After incubation at 28° C. for one hour, 25 μl of stopper buffer (a mixture of 100 mM HEPES pH 7.5 buffer, 0.015% Brij-35, 50 mM EDTA and 0.2% of coating reagent 3 (Cliper Lifesciences)) and produce TR-FRET signals. After 30 minutes of incubation at room temperature, the plate was read in a Caliper with the following settings: Excitation 340 nm (30)/Emission1 495 nm (10)/Emission2 520 nm (25). The TR-FRET values were dimensionless numbers that were calculated as the ratio of the acceptor ([…]) signal to the donor (Terbium) signal. Percent of control was calculated as the percentage of compound-treated vs 1% DMSO vehicle-treated. The dose-response curves were generated and the IC50s were calculated by nonlinear sigmoid curve fitting using XLFit.

The target in assay [2] is T2, human KDR kinase (Homo sapiens, UniProt P35968).
T2 construct: purchased Carna 08-191
T2 sequence (P35968 20-1356): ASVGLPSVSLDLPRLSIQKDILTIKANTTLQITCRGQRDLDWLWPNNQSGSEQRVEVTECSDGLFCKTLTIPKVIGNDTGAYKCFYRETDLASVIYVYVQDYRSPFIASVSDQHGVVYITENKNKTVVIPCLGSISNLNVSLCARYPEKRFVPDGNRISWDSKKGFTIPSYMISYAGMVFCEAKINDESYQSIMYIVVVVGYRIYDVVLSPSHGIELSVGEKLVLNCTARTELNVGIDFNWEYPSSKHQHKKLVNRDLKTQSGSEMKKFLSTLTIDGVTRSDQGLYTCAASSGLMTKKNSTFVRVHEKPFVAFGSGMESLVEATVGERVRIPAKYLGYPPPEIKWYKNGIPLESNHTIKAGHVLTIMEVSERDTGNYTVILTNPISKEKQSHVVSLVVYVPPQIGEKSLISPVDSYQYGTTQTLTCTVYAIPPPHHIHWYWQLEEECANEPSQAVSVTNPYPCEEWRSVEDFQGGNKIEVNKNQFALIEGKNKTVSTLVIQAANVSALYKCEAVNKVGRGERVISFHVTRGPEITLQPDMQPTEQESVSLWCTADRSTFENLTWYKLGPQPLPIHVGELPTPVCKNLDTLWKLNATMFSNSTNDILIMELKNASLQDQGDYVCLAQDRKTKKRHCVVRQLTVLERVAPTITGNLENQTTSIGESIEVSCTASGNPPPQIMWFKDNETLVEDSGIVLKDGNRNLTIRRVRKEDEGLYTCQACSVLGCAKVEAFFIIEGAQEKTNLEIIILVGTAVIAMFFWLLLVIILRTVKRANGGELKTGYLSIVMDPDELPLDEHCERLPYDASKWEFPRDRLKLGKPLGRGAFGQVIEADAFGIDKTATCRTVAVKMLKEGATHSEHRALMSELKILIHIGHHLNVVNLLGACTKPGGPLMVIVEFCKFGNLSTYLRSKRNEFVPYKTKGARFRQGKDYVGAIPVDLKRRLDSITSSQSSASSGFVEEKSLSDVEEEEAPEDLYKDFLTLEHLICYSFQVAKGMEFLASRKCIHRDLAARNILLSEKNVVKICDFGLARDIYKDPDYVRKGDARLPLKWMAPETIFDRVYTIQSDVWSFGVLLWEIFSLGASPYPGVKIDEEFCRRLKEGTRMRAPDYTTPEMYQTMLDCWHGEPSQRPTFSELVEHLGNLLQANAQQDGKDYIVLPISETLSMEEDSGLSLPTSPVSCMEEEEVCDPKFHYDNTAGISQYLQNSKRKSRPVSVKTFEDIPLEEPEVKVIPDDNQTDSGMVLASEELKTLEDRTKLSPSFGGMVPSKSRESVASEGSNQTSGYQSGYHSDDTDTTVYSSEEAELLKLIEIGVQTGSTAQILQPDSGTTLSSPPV
The assay is described as follows: KDR Kinase Assay (LanthaScreen TR-FRET enzymatic assay). Format: biochemical. Conditions: 1.2 nM KDR, 92 μM ATP. The procedure:
Compounds were tested in a LanthaScreen™ time-resolved fluorescence energy transfer (TR-FRET) enzymatic assay from Invitrogen. The assay used human KDR kinase (Carna 08-191). Test compounds were prepared and diluted in DMSO in 3-fold serial dilutions to 50× of the final testing concentrations. The compounds were then further diluted to 5× by the kinase reaction buffer (50 mM HEPES pH 7.5, 0.0015% Brij-35). The enzymatic reaction for compound testing was performed in a white 384-well polypropylene plate (Corning 3573) with a total reaction volume of 25 μl containing 1.2 nM KDR, 3 μM peptide substrate FAM-P22 (GL Biochem 112393), and 92 μM ATP (Sigma A7699-1G). The assay started with loading RET diluted in kinase reaction buffer to wells, followed by addition of equal volume of 5× compounds for 15-min incubation at the room temperature for pre-treatment. The enzymatic reaction was initiated by addition of mixture of the substrate and ATP prepared in kinase reaction buffer. After incubation at 28° C. for one hour, 25 μl of stopper buffer (a mixture of 100 mM HEPES pH 7.5 buffer, 0.015% Brij-35, 50 mM EDTA and 0.2% of coating reagent 3 (Cliper Lifesciences)) and produce TR-FRET signals. After 30 minutes of incubation at room temperature, the plate was read in a Caliper with the following settings: Excitation 340 nm (30)/Emission1 495 nm (10)/Emission2 520 nm (25). The TR-FRET values were dimensionless numbers that were calculated as the ratio of the acceptor ([…]) signal to the donor (Terbium) signal. Percent of control was calculated as the percentage of compound-treated vs 1% DMSO vehicle-treated. The dose-response curves were generated and the IC50s were calculated by nonlinear sigmoid curve fitting using XLFit.
(Time-resolved FRET reads energy transfer from a long-lived donor to a nearby acceptor.)

The subject of assay [3] is TT cells. The assay is described as follows: TT Cell Proliferation Assay (WST-8, 8 days). Format: cell-based. The note with it: Homo sapiens, TT, 192 h, growth inhibition in TT cells, read-out: TT Cellular Activity. As to the method: Compounds disclosed herein were tested for the inhibition of RET by a cancer cell proliferation assay commonly known as MTT assay. In this assay, a complete media was prepared by adding 10% fetal bovine serum to RPMI-1640 medium (Life technology). TT cells were added to each of 88 wells of a 96 well plate at a seeding density of 6,000 cells/well/90 μL. The cells were allowed to attach to the plate by incubating at 37° C. for 24 hours. The compound was dissolved in DMSO (SIGMA). A solution of test compound was prepared in complete media by serial dilution to obtain the following concentrations: 50 μM, 15 μM, 5 μM, 1.5 μM, 0.5 μM, 0.15 μM, 0.05 μM, 0.015 μM and 0.005 μM. The test compound solution (10 μL) was added to each of 80 cell-containing wells. The final concentrations of the compound were following: 5 μM, 1.5 μM, 0.5 μM, 0.15 μM, 0.05 μM, 0.015 μM, 0.005 μM, 0.0015 μM and 0.0005 μM. The final concentration of DMSO is 0.5%. To the 8 remaining cell-containing wells, only complete media (containing 0.5% DMSO) was added to form a control group in order to measure maximal proliferation. To the remaining 8 empty wells, complete media was added to for a vehicle control group in order to measure background. The plates were incubated at 37° C. for 8 days. 10 μL WST-8 solution (DOJINDO, Cell Counting KIT-8) was added to each well. The plates were further incubated at 37° C. for 5 hours, and then read for the absorbance using a microplate reader at 450 nm. The IC50 was calculated using GraphPad Prism.

T1 sequence (P07949 29-1114): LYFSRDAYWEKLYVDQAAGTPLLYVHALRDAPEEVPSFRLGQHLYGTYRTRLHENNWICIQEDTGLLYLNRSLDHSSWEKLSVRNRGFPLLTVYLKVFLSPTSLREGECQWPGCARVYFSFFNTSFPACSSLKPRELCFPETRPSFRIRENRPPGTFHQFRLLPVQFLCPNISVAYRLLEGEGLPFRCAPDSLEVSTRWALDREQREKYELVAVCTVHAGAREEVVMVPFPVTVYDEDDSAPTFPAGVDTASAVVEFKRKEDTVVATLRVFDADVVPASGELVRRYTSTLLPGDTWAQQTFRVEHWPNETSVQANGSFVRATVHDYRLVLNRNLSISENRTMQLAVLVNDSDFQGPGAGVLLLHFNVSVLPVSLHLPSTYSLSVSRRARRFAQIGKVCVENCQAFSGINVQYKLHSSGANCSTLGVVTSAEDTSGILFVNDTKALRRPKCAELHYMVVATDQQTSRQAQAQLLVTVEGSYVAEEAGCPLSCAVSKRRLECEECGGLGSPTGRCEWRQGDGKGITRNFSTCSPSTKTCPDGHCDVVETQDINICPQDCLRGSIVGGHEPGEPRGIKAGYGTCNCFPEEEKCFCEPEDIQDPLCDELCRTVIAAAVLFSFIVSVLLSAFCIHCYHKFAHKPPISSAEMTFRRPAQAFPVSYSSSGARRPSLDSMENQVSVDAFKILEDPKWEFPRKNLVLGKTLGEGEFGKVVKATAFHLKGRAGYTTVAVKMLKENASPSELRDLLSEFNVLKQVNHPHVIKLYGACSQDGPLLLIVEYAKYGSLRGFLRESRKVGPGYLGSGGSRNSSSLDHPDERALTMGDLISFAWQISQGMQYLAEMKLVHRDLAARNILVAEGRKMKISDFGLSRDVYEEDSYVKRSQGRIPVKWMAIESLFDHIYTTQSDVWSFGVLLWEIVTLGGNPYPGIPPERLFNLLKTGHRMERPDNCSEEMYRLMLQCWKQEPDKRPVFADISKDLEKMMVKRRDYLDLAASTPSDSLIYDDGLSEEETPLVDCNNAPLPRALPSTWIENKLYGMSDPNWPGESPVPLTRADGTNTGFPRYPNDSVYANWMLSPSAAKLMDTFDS

Regarding `Cc1cccc(Cl)c1C(=O)N[C@H]1[C@@H]2CN(c3ccc(-c4cc(-c5cnn(C)c5)cn5ncc(C#N)c45)cn3)C[C@@H]21` [Example 23, 2-chloro-N-((1R,5S,6s)-3-(5-(3-cyano-6-(1-methyl-1H-pyrazol-4-yl)pyrazolo[1,5-a]pyridin-4-yl)pyridin-2-yl)-3-azabicyclo[3.1.0]hexan-6-yl)-6-methylbenzamide], the IC50 in assay [1], in assay [2] and in assay [3] was not above 0.01 µM in each case.
Turning to `Cn1cc(-c2cc(-c3ccc(N4C[C@@H]5[C@H](C4)[C@H]5NC(=O)c4c(F)cccc4Cl)nc3)c3c(C#N)cnn3c2)cn1` [Example 24, 2-chloro-N-((1R,5S,6s)-3-(5-(3-cyano-6-(1-methyl-1H-pyrazol-4-yl)pyrazolo[1,5-a]pyridin-4-yl)pyridin-2-yl)-3-azabicyclo[3.1.0]hexan-6-yl)-6-fluorobenzamide], the IC50 is not above 0.01 µM in assay [1], not above 0.01 µM in assay [2] and 0.01 to 0.05 µM in assay [3].
As to `CC(C)CC(=O)N[C@H]1[C@@H]2CN(c3ccc(-c4cc(-c5cnn(C)c5)cn5ncc(C#N)c45)cn3)C[C@@H]21` [Example 25, N-((1R,5S,6s)-3-(5-(3-cyano-6-(1-methyl-1H-pyrazol-4-yl)pyrazolo[1,5-a]pyridin-4-yl)pyridin-2-yl)-3-azabicyclo[3.1.0]hexan-6-yl)-3-methylbutanamide], the IC50 in assay [1] was not above 0.01 µM; in assay [2], 0.01 to 0.05 µM; in assay [3], 0.01 to 0.05 µM.
Turning to `Cc1ccc(F)cc1C(=O)N[C@H]1[C@@H]2CN(c3ccc(-c4cc(-c5cnn(C)c5)cn5ncc(C#N)c45)cn3)C[C@@H]21` [Example 26, N-((1R,5S,6s)-3-(5-(3-cyano-6-(1-methyl-1H-pyrazol-4-yl)pyrazolo[1,5-a]pyridin-4-yl)pyridin-2-yl)-3-azabicyclo[3.1.0]hexan-6-yl)-5-fluoro-2-methylbenzamide], the results for the IC50 in assay [1], in assay [2] and in assay [3] were not above 0.01 µM, not above 0.01 µM and 0.01 to 0.05 µM, respectively.
As to `Cc1ccc(Cl)c(C(=O)N[C@H]2[C@@H]3CN(c4ccc(-c5cc(-c6cnn(C)c6)cn6ncc(C#N)c56)cn4)C[C@@H]32)n1` [Example 27, 3-chloro-N-((1R,5S,6s)-3-(5-(3-cyano-6-(1-methyl-1H-pyrazol-4-yl)pyrazolo[1,5-a]pyridin-4-yl)pyridin-2-yl)-3-azabicyclo[3.1.0]hexan-6-yl)-6-methylpicolinamide], the IC50 in assay [1] was not above 0.01 µM; in assay [2], 0.01 to 0.05 µM; in assay [3], 0.01 to 0.05 µM.
For `Cn1cc(-c2cc(-c3ccc(N4C[C@@H]5[C@H](C4)[C@H]5NC(=O)c4cc(F)ccc4Cl)nc3)c3c(C#N)cnn3c2)cn1` [Example 28, 2-chloro-N-((1R,5S,6s)-3-(5-(3-cyano-6-(1-methyl-1H-pyrazol-4-yl)pyrazolo[1,5-a]pyridin-4-yl)pyridin-2-yl)-3-azabicyclo[3.1.0]hexan-6-yl)-5-fluorobenzamide], the IC50 was not above 0.01 µM in assay [1], not above 0.01 µM in assay [2] and 0.01 to 0.05 µM in assay [3].
In the case of `Cn1ccc(-c2cc(-c3ccc(N4C[C@@H]5[C@H](C4)[C@H]5NC(=O)c4ncccc4Cl)nc3)c3c(C#N)cnn3c2)n1` [Example 29, 3-chloro-N-((1R,5S,6s)-3-(5-(3-cyano-6-(1-methyl-1H-pyrazol-3-yl)pyrazolo[1,5-a]pyridin-4-yl)pyridin-2-yl)-3-azabicyclo[3.1.0]hexan-6-yl)picolinamide], the IC50 in assay [1] is not above 0.01 µM; in assay [2], 0.01 to 0.05 µM; in assay [3], 0.05 to 0.1 µM.
As to `Cn1cc(-c2cc(-c3ccc(N4C[C@@H]5[C@H](C4)[C@@H]5NC(=O)c4ncccc4Cl)nc3)c3c(C#N)cnn3c2)cn1` [Example 30, 3-chloro-N-((1R,5S,6r)-3-(5-(3-cyano-6-(1-methyl-1H-pyrazol-4-yl)pyrazolo[1,5-a]pyridin-4-yl)pyridin-2-yl)-3-azabicyclo[3.1.0]hexan-6-yl)picolinamide], the results for the IC50 in assay [1], in assay [2] and in assay [3] were not above 0.01 µM, 0.01 to 0.05 µM and 0.01 to 0.05 µM, respectively.
For the compound `CC(C)C(=O)N[C@H]1[C@@H]2CN(c3ccc(-c4cc(-c5cnn(C)c5)cn5ncc(C#N)c45)cn3)C[C@@H]21` [Example 31, N-((1R,5 S,6s)-3-(5-(3-cyano-6-(1-methyl-1H-pyrazol-4-yl)pyrazolo[1,5-a]pyridin-4-yl)pyridin-2-yl)-3-azabicyclo[3.1.0]hexan-6-yl)isobutyramide], the results for the IC50 in assay [1], in assay [2] and in assay [3] were not above 0.01 µM, 0.01 to 0.05 µM and 0.05 to 0.1 µM, respectively.
The matching figures for `Cn1cc(-c2cc(-c3ccc(N4C[C@@H]5[C@H](C4)[C@H]5NC(=O)C(N)c4ccccc4)nc3)c3c(C#N)cnn3c2)cn1` (stereo partly drawn) [Example 32, 2-amino-N-((1R,5S,6s)-3-(5-(3-cyano-6-(1-methyl-1H-pyrazol-4-yl)pyrazolo[1,5-a]pyridin-4-yl)pyridin-2-yl)-3-azabicyclo[3.1.0]hexan-6-yl)-2-phenylacetamide]: not above 0.01 µM, more than 0.1 µM and not above 0.01 µM.
Consider `COc1ccc(CN[C@H]2[C@@H]3CN(c4ccc(-c5cc(-c6cnn(C)c6)cn6ncc(C#N)c56)cn4)C[C@@H]32)cn1` [Example 33, 4-(6-((1R,5S,6s)-6-(((6-methoxypyridin-3-yl)methyl)amino)-3-azabicyclo[3.1.0]hexan-3-yl)pyridin-3-yl)-6-(1-methyl-1H-pyrazol-4-yl)pyrazolo[1,5-a]pyridine-3-carbonitrile], for which the IC50 is not above 0.01 µM in assay [1], 0.01 to 0.05 µM in assay [2] and 0.01 to 0.05 µM in assay [3].
On to `COc1ccc(CN(C)[C@H]2[C@@H]3CN(c4ccc(-c5cc(-c6cnn(C)c6)cn6ncc(C#N)c56)cn4)C[C@@H]32)cn1` [Example 34, 4-(6-((1R,5S,6s)-6-(((6-methoxypyridin-3-yl)methyl)(methyl)amino)-3-azabicyclo[3.1.0]hexan-3-yl)pyridin-3-yl)-6-(1-methyl-1H-pyrazol-4-yl)pyrazolo[1,5-a]pyridine-3-carbonitrile], for which the IC50 is not above 0.01 µM in assay [1], 0.01 to 0.05 µM in assay [2] and 0.01 to 0.05 µM in assay [3].
